According to patent US9278134B2, “Dual functioning ionic liquids and salts thereof” (priority 2008, dated 2016):
Like-named read-outs stand apart in the source and are kept apart here.

Tests used:
[1] = Thermal decomposition onset (T5% onset) by TGA
[2] = Thermocleavage of ionic liquid immobilized fragrance by TGA; format: physicochemical; conditions: TGA (FIG. 6)
[3] = TGA/DSC, 25° C. to 600° C. with 5° C./min under nitrogen, lidocaine salicylate co-ionic liquids
[4] = TGA/DSC, 25° C. to 600° C. with 5° C./min under nitrogen, cetylpyridinium salicylate-salicylic acid co-ionic liquids
[5] = TGA/DSC, 25° C. to 600° C. with 5° C./min under nitrogen, ephedrinium clofibrate co-ionic liquids prepared by melting
[6] = TGA/DSC, 25° C. to 600° C. with 5° C./min under nitrogen, tetrabutylphosphonium lactate-lactic acid co-ionic liquids

Q: For Lidocaine Salicylates [Lid:Sal 1.5:1], which “Tonset 5%” value [1, 3] is on record?
A: Its value is 169 °C.

Q: With `CCCCCCCCCCCCCCCC[n+]1ccccc1` [CetPy:Sal 1:1, Cetylpyridinium Salicylate] as the compound, how does the T5%onset [1] read?
A: Its T5%onset is 206 °C.

Q: And the T5%onset [1, 4]?
A: The T5%onset was 206 °C.

Q: With `CC(C)Cc1ccc(C(C)C(=O)O)cc1.CN[C@@H](C)[C@H](O)c1ccccc1` (centres unmarked) [Example 57, Ephedrinium Ibuprofenate] as the compound, how does the T5%onset [1] read?
A: The T5%onset was 238 °C.

Q: With “Cetylpyridinium Salicylate-cinnamate [CetPySalCinnH]” as the compound, how does the T5%onset [1] read?
A: The T5%onset was 162 °C.

Q: With Lidocaine Salicylates [Lid:Sal 1:1.5] as the compound, how does the “Tonset 5%” value [1, 3] read?
A: The value was 142 °C.

Q: For `CC(C)Cc1ccc(C(C)C(=O)[O-])cc1.CCCC[P+](CCCC)(CCCC)CCCC` [P(Bu)4Ibu 1:1, Tetrabutylphosphonium Ibuprofenate], which T5%onset [1] is on record?
A: The T5%onset was 234 °C.

Q: And the T5%onset ([1]; TGA/DSC, 25° C. to 600° C. with 5° C./min under nitrogen, tetrabutylphosphonium ibuprofenate-ibuprofenic co-ionic liquids)?
A: The T5%onset was 234 °C.

Q: What does the source list for `O=C(O)c1ccccc1O` [Salicylic acid, reference compound]?
A: Tonset 5% [1, 3]: 134 °C; T5%onset ([1]; TGA/DSC, 25° C. to 600° C. with 5° C./min under nitrogen, tetrabutylphosphonium salicylate-salicylic acid co-ionic liquids): 136 °C

Q: For Ephedrinium Clofibrate [Eph:Clofib 1:2], which “Tonset 5%” value [1, 5] is on record?
A: The value was 182 °C.

Q: Which T5%onset [1] does the source give for `CC(C)=CCC/C(C)=C/COC(=O)Cn1cc[n+](C)c1` [Example 44, (E)-1-(2-(3,7-dimethylocta-2,6-dienyloxy)-2-oxoethyl)-3-methyl-1H-imidazol-3-ium Docusate] here?
A: Its T5%onset is 170 °C.

Q: What about the “Thermocleavage, first decomposition step (release of geraniol)” value [2] of the same compound?
A: Its value is “Mass loss of the first decomposition step obtained corresponds to mass percentage of Geraniol [1] in the prodrug [4]”.

Q: With `CC(=O)Nc1ccc(OC(=O)C[N+]2(C)CCCC2)cc1` [Example 36, 1-(2-(4-acetamidophenoxy)-2-oxoethyl)-1-methylpyrrolidinium Docusate] as the compound, how does the T5%onset [1] read?
A: The T5%onset was 233 °C.

Q: Which T5%onset [1] does the source give for `CCCCC(CC)COC(=O)CC(C(=O)OCC(CC)CCCC)S(=O)(=O)O.CN[C@@H](C)[C@H](O)c1ccccc1` (centres unmarked) [Example 59, Ephedrinium Docusate] here?
A: Its T5%onset is 238 °C.

Q: For `COc1cccc(C2(O)CCCCC2CN(C)C)c1.O=C(O)c1ccccc1O` (centres unmarked) [Example 47, Tramadolium Salicylate], which T5%onset [1] is on record?
A: The T5%onset was 220 °C.

Q: Which T5%onset [1] does the source give for `CC(CN1c2ccccc2Sc2ccccc21)N(C)C.CN[C@@H](C)[C@H](O)c1ccccc1.O=C(O)c1ccccc1O` (centres unmarked) [Example 29, Promethazine-ephedrinium Salicylate] here?
A: The T5%onset was 151 °C.

Q: For Lidocaine Salicylates [Lid:Sal 1:2], which “Tonset 5%” value [1, 3] is on record?
A: The value was 138 °C.

Q: Which T5%onset [1] does the source give for `CC(=O)Nc1ccc(OC(=O)C[n+]2ccccc2)cc1` [Example 33, 1-(2-(4-acetamidophenoxy)-2-oxoethyl)pyridinium Chloride] here?
A: Its T5%onset is 198 °C.

Q: For `CC(C)Cc1ccc(C(C)C(=O)O)cc1.CCN(CC)CCNC(=O)c1ccc(N)cc1` [Example 62, Procainamide Ibuprofenate], which T5%onset [1] is on record?
A: The T5%onset was 182 °C.

Q: With `CC(C)=CCC/C(C)=C/COC(=O)Cn1cc[n+](C)c1` [Example 43, (E)-1-(2-(3,7-dimethylocta-2,6-dienyloxy)-2-oxoethyl)-3-methyl-1H-imidazol-3-ium Chloride] as the compound, how does the T5%onset [1] read?
A: The T5%onset was 125 °C.

Q: For `CCCC[PH](CCCC)(CCCC)CC(=O)Oc1ccc(NC(C)=O)cc1` [Example 38, (2-(4-acetamidophenoxy)-2-oxoethyl)tributylphosphonium Docusate], which T5%onset [1] is on record?
A: The T5%onset was 227 °C.

Q: Which T5%onset [1, 4] does the source give for “Cetylpyridinium Salicylate-salicylic Acid [CetPy:Sal 1:3]” here?
A: The T5%onset was 162 °C.

Q: With `CCN(CC)CC(=O)Nc1c(C)cccc1C.CN[C@@H](C)[C@H](O)c1ccccc1.O=C(O)c1ccccc1O` [Example 23, Ephedrinium-lidocaine Salicylate] as the compound, how does the T5%onset [1] read?
A: Its T5%onset is 149 °C.

Q: Which T5%onset [1] does the source give for “Triethanolammonium Ibuprofenate [Example 64]” here?
A: The T5%onset was 163 °C.

Q: Which “Tonset 5%” value [1, 3] does the source give for `CCN(CC)CC(=O)Nc1c(C)cccc1C` [Lid, lidocaine, reference compound] here?
A: Its value is 152 °C.

Q: For `CC(=O)Nc1ccc(OC(=O)C[n+]2ccccc2)cc1` [Example 37, 1-(2-(4-acetamidophenoxy)-2-oxoethyl)pyridinium Docusate], which T5%onset [1] is on record?
A: Its T5%onset is 238 °C.

Q: Which “Tonset 5%” value [1, 3] does the source give for Lidocaine Salicylates [Lid:Sal 2:1] here?
A: Its value is 154 °C.

Q: Which T5%onset [1] does the source give for Benzethonium Salicylate [Example 53] here?
A: The T5%onset was 180 °C.

Q: For `CCCC[P+](CCCC)(CCCC)CCCC` [P(Bu)4Lac 1:1, tetrabutylphosphonium lactate], which T5%onset [1, 6] is on record?
A: The T5%onset was 262.

Q: Which “Tonset 5%” value [1, 3] does the source give for Lidocaine Salicylates [Lid:Sal 1:2.5] here?
A: The value was 132 °C.

Q: With `CCCC[P+](CCCC)(CCCC)CCCC` [P(Bu)4Lac 1:2, Tetrabutylphosphonium Lactate-lactic Acid] as the compound, how does the T5%onset [1, 6] read?
A: Its T5%onset is 215.

Q: With `CC(C)=CCC/C(C)=C/COC(=O)CCC(=O)O` [Example 46, 2-Hydroxy-N,N,N-trimethylethanaminium (E)-4-(3,7-dimethylocta-2,6-dienyloxy)-4-oxobutanoate] as the compound, how does the T5%onset [1] read?
A: The T5%onset was 170 °C.

Q: Which “Tonset 5%” value [1, 5] does the source give for `CC(C)(Oc1ccc(Cl)cc1)C(=O)O.CN[C@@H](C)[C@H](O)c1ccccc1.CN[C@@H](C)[C@H](O)c1ccccc1` [Eph:Clofib 2:1, Ephedrinium Clofibrate] here?
A: Its value is 135 °C.

Q: Which “Tonset 5%” value [1, 3] does the source give for Lidocaine Salicylates [Lid:Sal 1:3] here?
A: Its value is 128 °C.

Q: Which results are given for `CCN(CC)CC(=O)Nc1c(C)cccc1C.O=C(O)c1ccccc1O` [Lid:Sal 1:1, Lidocainium Salicylate]?
A: T5%onset [1]: 161 °C; Tonset 5% [1, 3]: 161 °C

Q: For Caffeine Salicylate [Example 13], which T5%onset [1] is on record?
A: Its T5%onset is 111 °C.

Q: With `CC(CN1c2ccccc2Sc2ccccc21)N(C)C.CCCCC(CC)COC(=O)CC(C(=O)OCC(CC)CCCC)S(=O)(=O)O.CN[C@@H](C)[C@H](O)c1ccccc1` (centres unmarked) [Example 27, Promethazine-ephedrinium Docusate 1:1:1] as the compound, how does the T5%onset [1] read?
A: The T5%onset was 164 °C.

Q: With `CCN(CC)CCNC(=O)c1ccc(N)cc1.O=C(O)c1ccccc1O` [Example 61, Procainamide Salicylate] as the compound, how does the T5%onset [1] read?
A: The T5%onset was 199 °C.

Q: Which T5%onset [1] does the source give for `CCN(CC)CC(=O)Nc1c(C)cccc1C.COc1cccc(C2(O)CCCCC2CN(C)C)c1.O=C(O)c1ccccc1O` (centres unmarked) [Example 26, Tramadolium-lidocaine Salicylate] here?
A: The T5%onset was 181 °C.

Q: With `CCCCC(CC)COC(=O)CC(C(=O)OCC(CC)CCCC)S(=O)(=O)O.CCN(CC)CCNC(=O)c1ccc(N)cc1` (centres unmarked) [Example 63, Procainamide Docusate] as the compound, how does the T5%onset [1] read?
A: Its T5%onset is 231 °C.

Q: Which T5%onset [1] does the source give for `CC(=O)Nc1ccc(OC(=O)C[N+]2(C)CCCC2)cc1.CC(O)C(=O)O` [Example 40, 1-(2-(4-acetamidophenoxy)-2-oxoethyl)-1-methylpyrrolidinium Lactate] here?
A: Its T5%onset is 166 °C.

Q: With Lidocaine Salicylates [Lid:Sal 3:1] as the compound, how does the “Tonset 5%” value [1, 3] read?
A: Its value is 161 °C.

Q: For `COc1cccc(C2(O)CCCCC2CN(C)C)c1.Cc1ccc(Cl)c(Nc2ccccc2C(=O)O)c1Cl` (centres unmarked) [Example 50, Tramadolium Meclofenamate], which T5%onset [1] is on record?
A: Its T5%onset is 172 °C.

Q: For `CC(C)Cc1ccc(C(C)C(=O)O)cc1.COc1cccc(C2(O)CCCCC2CN(C)C)c1` (racemic) [Example 48, Tramadolium rac-ibuprofenate], which T5%onset [1] is on record?
A: The T5%onset was 175 °C.

Q: For Lidocaine Salicylates [Lid:Sal 2.5:1], which “Tonset 5%” value [1, 3] is on record?
A: Its value is 137 °C.

Q: Which T5%onset [1] does the source give for `CC(CN1c2ccccc2Sc2ccccc21)N(C)C.CCCCC(CC)COC(=O)CC(C(=O)OCC(CC)CCCC)S(=O)(=O)O` (centres unmarked) [Example 60, Promethazine Docusate] here?
A: The T5%onset was 246 °C.

Q: For `CCCC[P+](CCCC)(CCCC)CC(=O)Oc1ccc(NC(C)=O)cc1` [Example 34, (2-(4-acetamidophenoxy)-2-oxoethyl)tributylphosphonium Chloride], which T5%onset [1] is on record?
A: The T5%onset was 197 °C.

Q: With `CC(C)(Oc1ccc(Cl)cc1)C(=O)O.CN[C@@H](C)[C@H](O)c1ccccc1` [Eph:Clofib 1:1, Ephedrinium Clofibrate] as the compound, how does the T5%onset [1] read?
A: Its T5%onset is 166 °C.

Q: What about the “Tonset 5%” value [1, 5] of the same compound?
A: Its value is 169 °C.

Q: For `CCCCC(CC)COC(=O)CC(C(=O)OCC(CC)CCCC)S(=O)(=O)[O-].CCCC[P+](CCO)(CCCC)CCCC` (centres unmarked) [Example 66, Tributylhydroxyethylphosphonium Docusate], which T5%onset [1] is on record?
A: Its T5%onset is 280 °C.

Q: For `CCCCC(CC)COC(=O)CC(C(=O)OCC(CC)CCCC)S(=O)(=O)O.COc1cccc(C2(O)CCCCC2CN(C)C)c1` (centres unmarked) [Example 51, Tramadolium Docusate], which T5%onset [1] is on record?
A: Its T5%onset is 226 °C.

Q: For `CN[C@@H](C)[C@H](O)c1ccccc1.O=C(O)c1ccccc1O` [Eph:Sal 1:1, Ephedrinium Salicylate], which T5%onset [1] is on record?
A: Its T5%onset is 161 °C.

Q: With `C[N+](C)(C)CCO.O=C([O-])c1ccccc1O` [Cho:Sal 1:1, choline salicylate] as the compound, how does the T5%onset ([1]; TGA/DSC, 25° C. to 600° C. with 5° C./min under nitrogen, choline salicylate-salicylic acid co-ionic liquids) read?
A: Its T5%onset is 203 °C.

Q: For `CC(=O)Nc1ccc(OC(=O)C[N+]2(C)CCCC2)cc1` [Example 32, 1-(2-(4-acetamidophenoxy)-2-oxoethyl)-1-methylpyrrolidinium Chloride], which T5%onset [1] is on record?
A: Its T5%onset is 197 °C.

Q: Which T5%onset [1] does the source give for Choline Docusate [Example 67] here?
A: The T5%onset was 189 °C.

Q: For “Cetylpyridinium Salicylate-salicylic Acid [CetPy:Sal 1:2]”, which T5%onset [1, 4] is on record?
A: The T5%onset was 184 °C.

Q: For `CC(=O)Nc1ccc(OC(=O)Cn2cc[n+](C)c2)cc1` [Example 31, 1-(2-(4-acetamidophenoxy)-2-oxoethyl)-3-methyl-1H-imidazol-3-ium Chloride], which T5%onset [1] is on record?
A: The T5%onset was 200 °C.
